Measurements from patent US6572879B1, “Formulations for transdermal delivery of pergolide” (Alza Corporation, priority 1995, dated 2003).
Counter-ions that a name gives are not always drawn.

Experiments:
[1] = In vitro flux of pergolide through human cadaver epidermis in diffusion cells at 35° C.; type: in vitro ADME; details: 2% by weight in water donor, no permeation enhancer, over a period of 50 hours
Description: Several test samples were made to measure the flux of pergolide base and mesylate through human cadaver epidermis from donor vehicles containing the pergolide base or mesylate mixed with water alone, water and ethanol, or mineral oil alone as shown in Table 1. Transdermal fluxes were obtained using human epidermis at 35° C. in standard diffusion cells. FIGS. 5 and 6 graphically depict the results.
Circular pieces of human epidermis were placed with stratum corneum facing up. The release liner of the laminate was removed and the system was centered over the stratum corneum side of the epidermis. The edges of epidermis were then folded around the system. This assembly was then mounted on a Teflon rod. A known volume of receptor solution was then placed in a test tube and was equilibrated at 35° C. The Teflon rod with system and epidermis attached was then placed in a water bath at 35° C. Mixing was accomplished by attachment to a motor which caused constant vertical mixing.
At given time intervals, the entire receptor solution was removed from the test tubes and replaced with an equal volume of fresh receptor solutions previously equilibrated at 35° C. The receptor solutions are stored in capped vials at room temperature until assayed for pergolide content by HPLC. From the drug concentration and the volume of the receptor solutions, the area of permeation and the time interval, the flux of the drug through the epidermis was calculated as follows: (drug concentration X volume of receptor)/(area x time)=flux (μg/cm^2·hr).

[2] = Plasma terminal half-life of pergolide administered transdermally; type: in vivo; details: human, topical or ocular

| average baseline skin flux [1] | average baseline skin flux ([1]; listed as pergolide. base) | average baseline skin flux ([1]; listed as pergolide6mesylate) | half-life [2] [h] | SMILES |
| --- | --- | --- | --- | --- |
| approximately 0.3 μg/cm^2·hr | about 0.3 μg/cm^2·hr | – | – | CCCN1CC(CSC)C[C@@H]2c3cccc4[nH]cc(c34)C[C@H]21 (some centres unmarked) [pergolide base, 8-[(methylthio)methyl]-6-propylergoline] |
| approximately 1.1 μg/cm^2·hr | – | about 1.1 μg/cm^2·hr | – | CCCN1C[C@H](CSC)C[C@@H]2c3cccc4[nH]cc(c34)C[C@H]21 [pergolide mesylate, 8-[(methylthiolmethyl]6-propylergoline monomethanesulfonate)] |
| – | – | – | 5 to 10 | CCCN1CC(CSC)C[C@@H]2c3cccc4[nH]cc(c34)C[C@H]21 (some centres unmarked) [pergolide, 8-[(methylthio)methyl]-6-propylergoline] |
